Experimental data from patent US11051515B2, “3-acyl-benzamides and their use as herbicides” (Bayer Aktiengesellschaft, priority 2017, dated 2021).

What was measured:
STEME [1] = assay: Pre-emergence action against STEME; type: in vivo, Stellaria media; conditions: Dosage 320 g/ha, pre-emergence
How it was run: (§1)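 Seeds sown in sandy loam in wood-fiber pots and covered with soil. Greenhouse growth; visual damage scored after 3 weeks versus untreated controls (100% = dead, 0% = like control).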

ABUTH [2] = assay: Pre-emergence action against ABUTH; type: in vivo, Abutilon theophrasti; conditions: pre-emergence, dosage 320 g/ha, scored visually after 3 weeks vs untreated controls
How it was run: as §1

MATIN [3] = assay: Pre-emergence action against MATIN; type: in vivo, Matricaria inodora; conditions: Dosage 320 g/ha, pre-emergence
How it was run: as §1

ECHCG [4] = assay: Post-emergence action against ECHCG; type: in vivo, Echinochloa crus-galli; conditions: post-emergence, dosage 80 g/ha, visual assessment about 3 weeks after treatment vs untreated controls
How it was run: (§2)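 Weeds grown in sandy loam in greenhouse, treated at one-leaf stage (2–3 weeks after sowing) with WP or EC formulations sprayed as aqueous suspension/emulsion at 600 to […] water with 0.2% wetting agent. Visual rating after about 3 weeks versus untreated controls, as % herbicidal action (100% = plants dead, 0% = like control).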

VERPE [5] = assay: Pre-emergence action against VERPE; type: in vivo, Veronica persica; conditions: Dosage 320 g/ha, pre-emergence
How it was run: as §1

CYPES [6] = assay: Post-emergence action against CYPES; type: in vivo, Cyperus esculentus; conditions: post-emergence, dosage 80 g/ha, visual assessment about 3 weeks after treatment vs untreated controls
How it was run: as §2

VIOTR [7] = assay: Pre-emergence action against VIOTR; type: in vivo, Viola tricolor; conditions: Dosage 320 g/ha, pre-emergence
How it was run: as §1

SETVI [8] = assay: Pre-emergence action against SETVI; type: in vivo, Setaria viridis; conditions: pre-emergence, dosage 320 g/ha, scored visually after 3 weeks vs untreated controls
How it was run: as §1

MATIN [9] = assay: Post-emergence action against MATIN; type: in vivo, Matricaria inodora; conditions: post-emergence, dosage 80 g/ha, visual assessment about 3 weeks after treatment vs untreated controls
How it was run: as §2

ALOMY = assay: Pre-emergence action against ALOMY; type: in vivo, Alopecurus myosuroides; conditions: dosage 320 g/ha; pre-emergence; scored visually after 3 weeks vs untreated controls; 100% = plants have died, 0% = like control plants
How it was run: as §1

PHBPU = assay: Post-emergence action against PHBPU; type: in vivo, Pharbitis purpurea; conditions: post-emergence, dosage 80 g/ha
How it was run: as §2

VERPE [10] = assay: Post-emergence action against VERPE; type: in vivo, Veronica persica; conditions: dosage 80 g/ha
How it was run: as §2

POLCO [11] = assay: Post-emergence action against POLCO; type: in vivo, Polygonum convolvulus; conditions: post-emergence, dosage 80 g/ha
How it was run: as §2

SETVI [12] = assay: Post-emergence action against SETVI; type: in vivo, Setaria viridis; conditions: post-emergence, dosage 80 g/ha, visual assessment about 3 weeks after treatment vs untreated controls
How it was run: as §2

AMARE [13] = assay: Post-emergence action against AMARE; type: in vivo, Amaranthus retroflexus; conditions: post-emergence, dosage 80 g/ha, visual assessment about 3 weeks after treatment vs untreated controls
How it was run: as §2

ECHCG [14] = assay: Pre-emergence action against ECHCG; type: in vivo, Echinochloa crus-galli; conditions: pre-emergence, dosage 320 g/ha, scored visually after 3 weeks vs untreated controls
How it was run: as §1

LOLMU = assay: Pre-emergence action against LOLMU; type: in vivo, Lolium multiflorum; conditions: dosage 320 g/ha, scored visually after 3 weeks vs untreated controls
Excerpt: Seeds of monocotyledonous and dicotyledonous weed plants and crop plants are laid out in sandy loam soil in wood-fiber pots and covered with soil. The compounds of the invention, formulated in the form of wettable powders (WP) or as emulsion concentrates (EC), are then applied to the surface of the covering soil in the form of an aqueous suspension or emulsion at a water application rate equating to […], with addition of 0.2% wetting agent. After the treatment, the pots are placed in a greenhouse and kept under good growth conditions for the trial plants. The damage to the test plants is scored visually after a test period of 3 weeks by comparison with untreated controls (herbicidal activity in percent (%): 100% activity=the plants have died, 0% activity=like control plants).

POLCO [15] = assay: Pre-emergence action against POLCO; type: in vivo, Polygonum convolvulus; conditions: Dosage 320 g/ha, pre-emergence
How it was run: as §1

STEME [16] = assay: Post-emergence action against STEME; type: in vivo, Stellaria media; conditions: post-emergence, dosage 80 g/ha
How it was run: as §2

CYPES [17] = assay: Pre-emergence action against CYPES; type: in vivo, Cyperus esculentus; conditions: pre-emergence, dosage 320 g/ha, scored visually after 3 weeks vs untreated controls
How it was run: as §1

VIOTR [18] = assay: Post-emergence action against VIOTR; type: in vivo, Viola tricolor; conditions: post-emergence, dosage 80 g/ha
How it was run: as §2

ABUTH [19] = assay: Post-emergence action against ABUTH; type: in vivo, Abutilon theophrasti; conditions: post-emergence, dosage 80 g/ha, visual assessment about 3 weeks after treatment vs untreated controls
How it was run: as §2

AMARE [20] = assay: Pre-emergence action against AMARE; type: in vivo, Amaranthus retroflexus; conditions: pre-emergence, dosage 320 g/ha, scored visually after 3 weeks vs untreated controls
How it was run: as §1

AVEFA = assay: Pre-emergence action against AVEFA; type: in vivo, Avena fatua; conditions: dosage 320 g/ha, scored visually after 3 weeks vs untreated controls
How it was run: as §1

Row | SMILES | Pre-emergence action against STEME (STEME [1]) [%] | Pre-emergence action against ABUTH (herbicidal activity) (ABUTH [2]) [%] | Pre-emergence action against MATIN (MATIN [3]) [%] | Post-emergence action against ECHCG (herbicidal action in percent) (ECHCG [4]) [%] | Pre-emergence action against VERPE (VERPE [5]) [%] | Post-emergence action against CYPES (herbicidal action in percent) (CYPES [6]) [%] | Pre-emergence action against VIOTR (VIOTR [7]) [%] | SETVI (Table B8, pre-emergence herbicidal activity) (SETVI [8]) [%] | Post-emergence action against MATIN (herbicidal action in percent) (MATIN [9]) [%] | Pre-emergence action against ALOMY (herbicidal activity in percent) (ALOMY) [%] | Post-emergence action against PHBPU (PHBPU) | Post-emergence action against POLCO (POLCO [11]) | Post-emergence action against AMARE (herbicidal action in percent) (AMARE [13]) [%] | Pre-emergence action against ECHCG (herbicidal activity) (ECHCG [14]) [%] | Pre-emergence action against LOLMU (herbicidal activity) (LOLMU) [%] | Post-emergence action against STEME (STEME [16]) | Pre-emergence action against CYPES (herbicidal activity) (CYPES [17]) [%] | Post-emergence action against VIOTR (VIOTR [18]) | Post-emergence action against ABUTH (herbicidal action in percent) (ABUTH [19]) [%] | Pre-emergence action against AMARE (herbicidal activity) (AMARE [20]) [%] | also measured
1 | CCn1nnnc1NC(=O)c1ccc(C(F)(F)F)c(C(C)=O)c1OC [2-48] | 90 | 100 | 100 | 90 | 100 | 100 | 100 | 100 | 100 | 90 | 100 | 80 | 90 | 100 | 80 | 100 | 100 | 100 | 100 | 100 | Post-emergence action against VERPE (VERPE [10]): 80; Post-emergence action against SETVI (herbicidal action in percent) (SETVI [12]): 80%; Pre-emergence action against POLCO (POLCO [15]): 90%
2 | CCn1nnnc1NC(=O)c1ccc(Cl)c(C(C)=O)c1Cl [2-114] | 90 | 100 | 90 | 90 | 90 | 90 | 100 | 90 | 80 | 80 | 90 | 90 | 100 | 100 | 80 | 100 | 90 | 100 | 90 | 100 | Pre-emergence action against AVEFA (herbicidal activity) (AVEFA): 80%; Post-emergence action against VERPE (VERPE [10]): 80
3 | CCC(=O)c1c(Cl)ccc(C(=O)Nc2nnnn2CC)c1Cl [2-115] | 100 | 100 | 100 | 90 | 90 | 80 | 100 | 90 | 100 | 100 | 90 | 100 | 90 | 100 | 100 | 100 | 90 | 100 | 90 | 100 | Pre-emergence action against AVEFA (herbicidal activity) (AVEFA): 90%; Post-emergence action against SETVI (herbicidal action in percent) (SETVI [12]): 90%; Pre-emergence action against POLCO (POLCO [15]): 80%
